Assay results published in patent US11542233B2, “Compounds, compositions and methods of use” (Aquinnah Pharmaceuticals, Inc., priority 2016, dated 2023).

Each compound was assayed on TDP-43 aggregation in PC12 cells stably expressing GFP-tagged mutant TDP-43 (TDP-43^Q33IK::eGFP) (assay: In vitro efficacy assay: inhibition of TDP-43 inclusions, concentration-response, fluorescence microscopy). Conditions: Rattus norvegicus, PC-12, PC12 cells, 1 hour pre-treatment, 15 μM sodium arsenite for 23 hours, 10-point dose response curve.
Type: cell-based
Method: Exemplary compounds of the invention were evaluated for efficacy in inhibiting TDP-43 inclusions using a concentration-response assay. Briefly, PC12 cells stably expressing a GFP-tagged mutant form of TDP-43 (TDP-43^Q33IK::eGFP) were pre-treated for 1 hour with exemplary compounds and stressed with 15 μM sodium arsenite for 23 hours to induce TDP-43 aggregation. The inhibitory effect on TDP-43 aggregation was measured using fluorescence microscopy. The ratio of cells with TDP-43 aggregates was calculated based on the total number of cells with detectable GFP expression. In the table, “A” indicates an IC50 of less than 100 nM, “B” indicates an IC50 range from 100 nM to 500 nM; “C” indicates an IC50 range from 500 nM to 2 μM; and “D” indicates an IC50 greater than 2 μM.

| SMILES | IC50 |
| --- | --- |
| CCN(C(=O)c1nc2ccccc2[nH]1)[C@H]1CCC[C@@H](NCc2cc3ccccn3c2)C1 [Compound 493] | < 100 nM |
| CCN(C(=O)c1nc2ccccc2[nH]1)[C@H]1CCC[C@@H](NCc2ccc3ncoc3c2)C1 [Compound 487, N-((1S,3R)-3-((benzo[d]oxazol-6-ylmethyl)amino)cyclohexyl)-N-ethyl-1H-benzo[d]imidazole-2-carboxamide] | < 100 nM |
| CCN(C(=O)c1cc2ccccc2[nH]1)[C@H]1CCC[C@H](NCc2cccnc2)C1 [Compound 109] | 500 to 2000 nM |
| CCN(C(=O)c1cc2ccccc2[nH]1)C1CCC[C@@H](NCc2ccccc2)C1 (stereo partly drawn) [Compound 101] | < 100 nM |
| CCN(C(=O)c1cc2ccccc2[nH]1)[C@H]1CCC[C@@H](NC2(c3ccccc3)COC2)C1 [Compound 318, N-ethyl-N-((1S,3R)-3-((3-phenyloxetan-3-yl)amino)cyclohexyl)-1H-indole-2-carboxamide] | 500 to 2000 nM |
| CCN(C(=O)c1nc2cc(F)ccc2[nH]1)[C@H]1CCC[C@@H](NCc2cccc(F)c2)C1 [Compound 525] | < 100 nM |
| CCN(C(=O)c1cc2ccccc2[nH]1)[C@H]1CCC[C@H](N2CCc3ccccc3C2)C1 [Compound 116] | 500 to 2000 nM |
| CCN(C(=O)c1cc2ccccc2[nH]1)[C@H]1CCC[C@@H](NCc2cccnc2)C1 [Compound 108] | 100 to 500 nM |
| CCN(C(=O)c1cc2ccccc2[nH]1)[C@H]1CCC[C@@H](NCc2nnc(C)o2)C1 [Compound 469] | 100 to 500 nM |
| O=C(c1cc2ccccc2[nH]1)N(CC(F)(F)F)[C@H]1CCC[C@H](NCc2cccc(F)c2)C1 [Compound 172, N-((1S,3S)-3-((3-fluorobenzyl)amino)cyclohexyl)-N-(2,2,2-trifluoroethyl)-1H-indole-2-carboxamide] | 500 to 2000 nM |
| CCN(C(=O)c1cc2ccccc2[nH]1)[C@H]1CCC[C@@H](NCc2ccc(N=[N+]=[N-])cc2)C1 [Compound 317] | < 100 nM |
| CCN(C(=O)c1cc2ccccc2[nH]1)[C@H]1CCC[C@@H](NCc2cnc(Cl)nc2)C1 [Compound 133] | 100 to 500 nM |
| CCN(C(=O)c1cc2ccccc2[nH]1)[C@H]1COC[C@@H](N[C@@H]2CCc3ccccc32)C1 [Compound 504, N-((3R,5S)-5-(((R)-2,3-dihydro-1H-inden-1-yl)amino)tetrahydro-2H-pyran-3-yl)-N-ethyl-1H-indole-2-carboxamide] | < 100 nM |
| O=C(c1cc2ccccc2[nH]1)N(CC(F)(F)F)[C@H]1CCC[C@@H](NCc2cccc(F)c2)C1 [Compound 170, N-((1S,3R)-3-((3-fluorobenzyl)amino)cyclohexyl)-N-(2,2,2-trifluoroethyl)-1H-indole-2-carboxamide] | < 100 nM |
| CCN(C(=O)c1cc2ccccc2[nH]1)[C@H]1CCC[C@@H](NCC2CCOCC2)C1 [Compound 118] | 100 to 500 nM |
| CCN(C(=O)c1cc2ccccc2[nH]1)[C@H]1CCC[C@@H](NCc2nnc(C3CC3)s2)C1 [Compound 467, N-((1S,3R)-3-(((5-cyclopropyl-1,3,4-thiadiazol-2-yl)methyl)amino)cyclohexyl)-N-ethyl-1H-indole-2-carboxamide] | < 100 nM |
| CCN(C(=O)c1cc2ccccc2[nH]1)[C@H]1CCC[C@@H](NCc2ccccc2)C1 [Compound 100, N-((1S,3R)-3-(benzylamino)cyclohexyl)-N-ethyl-1H-indole-2-carboxamide] | < 100 nM |
| CCN(C(=O)c1cc2ncccc2[nH]1)[C@H]1CCC[C@@H](N[C@@H](c2ccccc2)C(F)(F)F)C1 (single isomer, unassigned) [Compound 417] | 100 to 500 nM |
| CCN(C(=O)c1cc2cc(C(F)(F)F)ccc2[nH]1)[C@H]1CCC[C@@H](NCc2ccccc2)C1 [Compound 544] | < 100 nM |
| CCN(C(=O)c1cc2ccccc2[nH]1)[C@H]1CCC[C@@H](NCc2ccncn2)C1 [Compound 137] | 100 to 500 nM |
| CCN(C(=O)c1cc2ncccc2[nH]1)[C@H]1CCC[C@@H](NC2(c3ccccc3)CC2)C1 [Compound 418, N-ethyl-N-((1S,3R)-3-((1-phenylcyclopropyl)amino)cyclohexyl)-1H-pyrrolo[3,2-b]pyridine-2-carboxamide] | 100 to 500 nM |
